Test system: 485176-168-R4-J1-PDC complex spheroid growth
Assay: Anticancer human tumor 485176-168-R4-J1-PDC patient-derived pancreatic adenocarcinoma cell line growth inhibition [RAS]
Settings: for IC50: curve of first compound; for viability, T/C: stronger effect = lower value; active = viability on the fitted dose curve at most 10% of control; inactive = the rest
From the text: RAS pathway inhibitors in Combinations in Complex Spheroids
A high-throughput screen of multi-cell type tumor spheroids was designed to identify active combinations of RAS pathway inhibitors and targeted small molecules. Complex spheroids include a stromal component modeled by human endothelial cells (HUVEC) and fibroblasts modeled by human mesenchymal stem cells (MSCs). The concentration ranges selected for each drug and investigational agent were based upon clinically achievable concentrations if the clinical Cmax of the agent was known.
Compounds. The drugs and investigational agents: abemaciclib (NSC768073), cobimetinib (NSC768068), divarasib (GDC6063, NSC841802), docetaxel (NSC628503), GDC-1971 (RLY-1971, NSC841576), gemcitabine (NSC613327), inavolisib (NSC800729), ipatasertib (NSC767898), KB-0742 (NSC834161), MRTX-1133 (NSC836407), osimertinib (NSC779217), RMC-4630 (NSC839698), RMC-6236 (NSC851965), RMC-6291 (NSC852671), Ro-3306 (NSC812927), sapanisertib (NSC764658), SN-38 (NSC673596), staurosporine (NSC755774), SY5609 (NSC837396), and tovorafenib (DAY101, NSC766906), were obtained from the National Cancer Institute (NCI) Developmental Therapeutics Program Chemical Repository. The FDA-approved anticancer drug set is available from the NCI Developmental Therapeutics Program. […] The stock solutions were prepared in dimethyl sulfoxide (DMSO, Sigma-Aldrich, St. Louis, MO, cat. D2650) at 800-fold the tested concentration and stored at -70 degrees C prior to their use. All drugs and investigational agents were tested over a range starting from a high concentration at or near the clinical Cmax and decreasing in half-log increments. If the clinical Cmax for an agent had not been determined, the highest concentration tested was 10 microM.
Cell Culture. All cells were maintained in an incubator at 37 degrees C and 5% CO2 with 95% humidity. The PDC lines were cultured according to standard operating procedures established by the NCI PDMR. All PDCs were thawed and cultured in Matrigel-coated flasks prepared with a working solution of 1X Ham's F-12 nutrient mix, without supplementation (Invitrogen, Waltham, MA, cat. 11765054), 100 U/mL penicillin-streptomycin (Invitrogen, cat. 15140122), and 2.5% Matrigel (Corning Inc., Corning, NY, cat. 354248) for the first three passages. The 362531-283-R-J2-PDC and 782815-120-R-J1-PDC lines were cultured in 6C/Colon 1B media, which includes advanced DMEM/F-12 (Thermo Fisher Scientific, cat. 12634028), 10 mM HEPES (Thermo Fisher Scientific, cat. 15630080), 1X GlutaMAX supplement (Thermo Fisher Scientific, cat. 35050061), 0.1 mg/mL primocin (InvivoGen, San Diego, CA, cat. ant-pm-2), 10% defined fetal bovine serum, heat inactivated (HyClone Laboratories Inc., Logan, UT, cat. SH30070.03HI), 50% L-WRN conditioned media (ATCC, cat. CRL-3276), 1.25 mM N-Acetyl-L-cysteine (Sigma-Aldrich, cat. A9165), 10 mM nicotinamide (Sigma-Aldrich, cat. N0636), 1X B-27 supplement (Thermo Fisher Scientific, cat. 17504044), 1X N-2 supplement (Thermo Fisher Scientific, cat. 17502048), 50 ng/mL human EGF (Thermo Fisher Scientific, cat. PHG0311), and 10 microM Y-27632 dihydrochloride (Tocris Bioscience, cat. 1254). The K12877-001-R-J1-PDC line was cultured in 6I media, which includes all 6C/Colon 1B media plus 10 ng/mL human FGF-10 (PeproTech, cat. 100-26), 1 ng/mL human FGF-2 (PeproTech, cat. 100-18B), 1 µM prostaglandin E2 (Tocris Bioscience, cat. 2296), […] hydrocortisone (Sigma-Aldrich, cat. H4001), and […] bovine insulin (Sigma-Aldrich, cat. I6634). The K86415-001-R-J1-PDC line was cultured in 6D media, which includes all 6C/Colon 1B media components minus the L-WRN conditioned media. The 485176-168-R4-J1-PDC was cultured in PANC media, which includes all 6C/Colon 1B media plus 100 ng/mL human FGF-10 (PeproTech, cat. 100-26), 500 nM SB-431542 (Selleckchem, cat. S1067), and 10 nM gastrin (Tocris Bioscience, cat. 3006). […]
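Also: spheroids exposed to compounds for seven days before readout.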
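For viability, T/C in this document: luminescence viability expressed relative to DMSO vehicle wells set as 100%.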

O=C(c1ccc(F)c(F)c1Nc1ccc(I)cc1F)N1CC(O)([C@@H]2CCCCN2)C1 + C#Cc1c(F)ccc2cc(O)cc(-c3ncc4c(N5CC6CCC(C5)N6)nc(OCC56CCCN5CC(F)C6)nc4c3F)c12
358 nM: IC50 (second compound 0.0316 µM)
53.9 nM: IC50 (second compound 10 µM)
88.8 nM: IC50 (second compound 3.16 µM)
31 nM: IC50 (second compound 1 µM)
231 nM: IC50 (second compound 0.316 µM)
inactive: viability, T/C (second compound 0.0316 µM, first compound 0.00316 µM) 80.3% | viability, T/C (second compound 0.0316 µM, first compound 0.01 µM) 79.3% | viability, T/C (second compound 0.0316 µM, first compound 0.0316 µM) 69.7% | viability, T/C (second compound 0.0316 µM, first compound 0.1 µM) 72.4% | viability, T/C (second compound 0.0316 µM, first compound 0.316 µM) 50.5% | viability, T/C (second compound 0.0316 µM, first compound 1 µM) 41.1% | viability, T/C (second compound 0.1 µM, first compound 0.00316 µM) 79% | viability, T/C (second compound 0.1 µM, first compound 0.01 µM) 82.2% | viability, T/C (second compound 0.1 µM, first compound 0.0316 µM) 72.6% | viability, T/C (second compound 0.1 µM, first compound 0.1 µM) 62.5% | viability, T/C (second compound 0.1 µM, first compound 0.316 µM) 48.2% | viability, T/C (second compound 0.1 µM, first compound 1 µM) 37.5% | viability, T/C (second compound 0.316 µM, first compound 0.00316 µM) 88% | viability, T/C (second compound 0.316 µM, first compound 0.01 µM) 72.3% | viability, T/C (second compound 0.316 µM, first compound 0.0316 µM) 71.1% | viability, T/C (second compound 0.316 µM, first compound 0.1 µM) 56% | viability, T/C (second compound 0.316 µM, first compound 0.316 µM) 45.4% | viability, T/C (second compound 0.316 µM, first compound 1 µM) 41% | viability, T/C (second compound 1 µM, first compound 0.00316 µM) 96% | viability, T/C (second compound 1 µM, first compound 0.01 µM) 77.7% | viability, T/C (second compound 1 µM, first compound 0.0316 µM) 49.5% | viability, T/C (second compound 1 µM, first compound 0.1 µM) 47.3% | viability, T/C (second compound 1 µM, first compound 0.316 µM) 58.2% | viability, T/C (second compound 1 µM, first compound 1 µM) 38.9% | viability, T/C (second compound 3.16 µM, first compound 0.00316 µM) 90.4% | viability, T/C (second compound 3.16 µM, first compound 0.01 µM) 86.4% | viability, T/C (second compound 3.16 µM, first compound 0.0316 µM) 64.4% | viability, T/C (second compound 3.16 µM, first compound 0.1 µM) 50.6% | viability, T/C (second compound 3.16 µM, first compound 0.316 µM) 38.3% | viability, T/C (second compound 3.16 µM, first compound 1 µM) 39.2% | viability, T/C (second compound 10 µM, first compound 0.00316 µM) 98.3% | viability, T/C (second compound 10 µM, first compound 0.01 µM) 60.1% | viability, T/C (second compound 10 µM, first compound 0.0316 µM) 57.8% | viability, T/C (second compound 10 µM, first compound 0.1 µM) 51% | viability, T/C (second compound 10 µM, first compound 0.316 µM) 46.8% | viability, T/C (second compound 10 µM, first compound 1 µM) 29.9%
267 nM: IC50 (second compound 0.1 µM)
